The values that follow are results of earlier work, collected in US9724355B2, “Fulvestrant compositions and methods of use” (SHIMODA BIOTECH (PTY) LTD, priority 2010, dated 2017).

Where only a bound is given, the exact number is not on record here.

The conditions of the data set: cited from earlier work.
Sulfobutylether beta-cyclodextrin: the “Water Solubility (25° C.)” value is above 500 mg/mL.

As for `CC(O)COC[C@H]1O[C@@H]2O[C@H]3[C@H](O)[C@@H](O)[C@@H](O[C@H]4[C@H](O)[C@@H](O)[C@@H](O[C@H]5[C@H](O)[C@@H](O)[C@@H](O[C@H]6[C@H](O)[C@@H](O)[C@@H](O[C@H]7[C@H](O)[C@@H](O)[C@@H](O[C@H]8[C@H](O)[C@@H](O)[C@@H](O[C@H]1[C@H](O)[C@H]2O)O[C@@H]8COCC(C)O)O[C@@H]7COCC(C)O)O[C@@H]6COCC(C)O)O[C@@H]5COCC(C)O)O[C@@H]4COCC(C)O)O[C@@H]3COCC(C)O` (stereo partly drawn) [Hydroxypropyl beta-cyclodextrin], the “Water Solubility (25° C.)” value was above 750 mg/mL.

Take Methyl beta-cyclodextrin: the “Water Solubility (25° C.)” value is given as above 750 mg/mL.
